# From patent US20210261512A1, “NOVEL COMPOUNDS” (INFLAZOME LIMITED, priority 2018, published 2021)
# Biological target: NLRP3 (Homo sapiens, UniProt Q96P20)
# Assay: THP-1 cells pyroptosis assay
# Assay type: cell-based
# Set-up: Seed THP-1 cells (25,000 cells/well) containing 1.0 μg/ml LPS; host or cells: THP-1
# Conditions: LPS 1.0 μg/ml, nigericin 5 μM, resazurin readout, 10 μM top dose (Example 2: top dose of 30 μM)
# Procedure, shortened: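 Pyroptosis induced by 5 μM nigericin (1 h) in LPS-primed (1 μg/ml) THP-1 cells, 25,000/well in serum-free RPMI, after 3 h compound pre-treatment (8 points, 10 μM top unless stated). Surviving cells measured with 100 μM resazurin, Ex 560/Em 590; IC50 via variable-slope 4-parameter regression.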
# Chain of NLRP3 (Q96P20 whole entry): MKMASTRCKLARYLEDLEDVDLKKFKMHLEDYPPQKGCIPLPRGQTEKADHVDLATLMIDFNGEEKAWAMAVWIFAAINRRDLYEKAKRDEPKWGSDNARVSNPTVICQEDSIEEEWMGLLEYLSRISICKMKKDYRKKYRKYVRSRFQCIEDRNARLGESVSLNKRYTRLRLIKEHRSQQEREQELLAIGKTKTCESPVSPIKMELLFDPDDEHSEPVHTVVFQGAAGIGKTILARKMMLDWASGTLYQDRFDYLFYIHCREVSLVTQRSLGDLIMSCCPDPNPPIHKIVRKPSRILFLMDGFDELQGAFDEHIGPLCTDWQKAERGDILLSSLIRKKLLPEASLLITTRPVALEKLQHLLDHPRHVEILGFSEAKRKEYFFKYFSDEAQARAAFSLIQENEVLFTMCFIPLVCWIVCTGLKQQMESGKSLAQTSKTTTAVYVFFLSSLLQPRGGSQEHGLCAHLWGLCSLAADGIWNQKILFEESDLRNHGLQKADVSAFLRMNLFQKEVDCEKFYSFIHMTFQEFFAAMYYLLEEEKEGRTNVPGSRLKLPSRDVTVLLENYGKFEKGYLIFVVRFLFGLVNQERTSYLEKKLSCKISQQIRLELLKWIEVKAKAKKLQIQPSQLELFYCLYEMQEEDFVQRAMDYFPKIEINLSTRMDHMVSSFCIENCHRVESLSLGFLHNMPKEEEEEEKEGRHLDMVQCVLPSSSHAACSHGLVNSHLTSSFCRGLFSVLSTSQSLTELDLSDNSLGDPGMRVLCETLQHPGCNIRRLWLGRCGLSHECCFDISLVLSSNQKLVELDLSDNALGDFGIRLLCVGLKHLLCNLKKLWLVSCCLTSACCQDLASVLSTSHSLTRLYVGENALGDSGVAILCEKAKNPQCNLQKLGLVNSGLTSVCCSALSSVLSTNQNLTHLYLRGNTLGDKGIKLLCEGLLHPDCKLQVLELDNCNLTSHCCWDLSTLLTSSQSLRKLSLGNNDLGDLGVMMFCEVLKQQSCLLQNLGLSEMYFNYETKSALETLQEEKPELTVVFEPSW
row,Compound,IC50 [µM]
1,"CN1CCC(N(C)S(=O)(=O)c2nnc(Nc3c4c(cc5c3CCC5)CCC4)[nH]2)CC1 [Example 90, 5-((1,2,3,5,6,7-hexahydro-s-indacen-4-yl)amino)-N-methyl-N-(1-methylpiperidin-4-yl)-4H-1,2,4-triazole-3-sulfonamide]",≤ 10
2,"O=S(=O)(CCc1ccccn1)c1nnc(Nc2c3c(cc4c2CCC4)CCC3)[nH]1 [Example 63, N-(1,2,3,5,6,7-hexahydro-s-indacen-4-yl)-3-((2-(pyridin-2-yl)ethyl)sulfonyl)-1H-1,2,4-triazol-5-amine]",≤ 1
3,"COCCNS(=O)(=O)c1nnc(Nc2c3c(cc4c2CCC4)CCC3)[nH]1 [Example 83, 5-((1,2,3,5,6,7-hexahydro-s-indacen-4-yl)amino)-N-(2-methoxyethyl)-4H-1,2,4-triazole-3-sulfonamide]",≤ 10
4,"NS(=O)(=O)c1cccc(S(=O)(=O)c2nnc(Nc3c4c(cc5c3CCC5)CCC4)[nH]2)c1 [Example 326, 3-((5-((1,2,3,5,6,7-hexahydro-s-indacen-4-yl)amino)-4H-1,2,4-triazol-3-yl)sulfonyl)benzenesulfonamide]",≤ 5
5,"Cc1ccc(S(=O)(=O)c2nnc(Nc3c4c(cc5c3CCC5)CCC4)[nH]2)cc1 [Example 182, N-(1,2,3,5,6,7-hexahydro-s-indacen-4-yl)-5-tosyl-4H-1,2,4-triazol-3-amine]",≤ 5
6,"CNS(=O)(=O)c1nnc(Nc2c3c(cc4c2CCC4)CCC3)[nH]1 [Example 371, 5-((1,2,3,5,6,7-hexahydro-s-indacen-4-yl)amino)-N-methyl-4H-1,2,4-triazole-3-sulfonamide]",≤ 5
7,"CN1CCC(NS(=O)(=O)c2nnc(Nc3c4c(cc5c3CCC5)CCC4)[nH]2)C1 (stereo not shown) [Example 84, 5-((1,2,3,5,6,7-hexahydro-s-indacen-4-yl)amino)-N-(1-methylpyrrolidin-3-yl)-4H-1,2,4-triazole-3-sulfonamide]",≤ 5
8,"CN(C)C(=O)Cn1cc(S(=O)(=O)c2nnc(Nc3c4c(cc5c3CCC5)CCC4)[nH]2)cn1 [Example 348, 2-(4-((5-((1,2,3,5,6,7-hexahydro-s-indacen-4-yl)amino)-4H-1,2,4-triazol-3-yl)sulfonyl)-1H-pyrazol-1-yl)-N,N-dimethylacetamide]",≤ 5
9,"CC(O)Cn1cc(S(=O)(=O)c2nnc(Nc3c4c(cc5c3CCC5)CCC4)[nH]2)cn1 (stereo not shown) [Example 353, 1-(4-((5-((1,2,3,5,6,7-hexahydro-s-indacen-4-yl)amino)-4H-1,2,4-triazol-3-yl)sulfonyl)-1H-pyrazol-1-yl)propan-2-ol]",≤ 5
10,"CN1CCC[C@H](NS(=O)(=O)c2nnc(Nc3c4c(cc5c3CCC5)CCC4)[nH]2)C1 [Example 105, (S)-5-((1,2,3,5,6,7-hexahydro-s-indacen-4-yl)amino)-N-(1-methylpiperidin-3-yl)-4H-1,2,4-triazole-3-sulfonamide]",≤ 5
11,"CN1CCCN(S(=O)(=O)c2nnc(Nc3c4c(cc5c3CCC5)CCC4)[nH]2)CC1 [Example 273, N-(1,2,3,5,6,7-hexahydro-s-indacen-4-yl)-5-((4-methyl-1,4-diazepan-1-yl)sulfonyl)-4H-1,2,4-triazol-3-amine]",≤ 10
12,"O=S(=O)(c1nnc(Nc2c3c(cc4c2CCC4)CCC3)[nH]1)N1CCC2(CC1)CNC2 [Example 287, 5-((2,7-diazaspiro[35]nonan-7-yl)sulfonyl)-N-(1,2,3,5,6,7-hexahydro-s-indacen-4-yl)-4H-1,2,4-triazol-3-amine]",≤ 10
13,"Cn1cc(C#N)c(S(=O)(=O)c2nnc(Nc3c4c(cc5c3CCC5)CCC4)[nH]2)n1 [Example 351, 3-((5-((1,2,3,5,6,7-hexahydro-s-indacen-4-yl)amino)-4H-1,2,4-triazol-3-yl)sulfonyl)-1-methyl-1H-pyrazole-4-carbonitrile]",≤ 5
14,"Cn1cc(NS(=O)(=O)c2nnc(Nc3c4c(cc5c3CCC5)CCC4)[nH]2)cn1 [Example 99, 5-((1,2,3,5,6,7-hexahydro-s-indacen-4-yl)amino)-N-(1-methyl-1H-pyrazol-4-yl)-4H-1,2,4-triazole-3-sulfonamide]",≤ 10
15,"CC(C)c1cc(F)cc(-c2cccnc2)c1Nc1nnc(S(=O)(=O)c2ccn(C(C)C)n2)[nH]1 [Example 39, N-(4-fluoro-2-isopropyl-6-(pyridin-3-yl)phenyl)-5-((1-isopropyl-1H-pyrazol-3-yl)sulfonyl)-4H-1,2,4-triazol-3-amine]",≤ 10

# More lines, now with the values ahead:
row,IC50 [µM],Compound
1,≤ 10,"COC(=O)CN(CCN)S(=O)(=O)c1nnc(Nc2c3c(cc4c2CCC4)CCC3)[nH]1 [Example 111, methyl 2-(N-(2-aminoethyl)-5-((1,2,3,5,6,7-hexahydro-s-indacen-4-yl)amino)-4H-1,2,4-triazole-3-sulfonamido)acetate]"
2,≤ 5,"O=S(=O)(c1nnc(Nc2c3c(cc4c2CCC4)CCC3)[nH]1)N1CCC2(COC2)C1 [Example 333, 5-(2-oxa-6-azaspiro[3.4]octan-6-ylsulfonyl)-N-(1,2,3,5,6,7-hexahydro-s-indacen-4-yl)-4H-1,2,4-triazol-3-amine]"
3,≤ 10,"CC(=O)NCCN(C)S(=O)(=O)c1nnc(Nc2c3c(cc4c2CCC4)CCC3)[nH]1 [Example 107, N-(2-(5-((1,2,3,5,6,7-hexahydro-s-indacen-4-yl)amino)-N-methyl-4H-1,2,4-triazole-3-sulfonamido)ethyl)acetamide]"
4,≤ 5,"N#Cc1cccc(S(=O)(=O)c2nnc(Nc3c4c(cc5c3CCC5)CCC4)[nH]2)c1 [Example 188, 3-((5-((1,2,3,5,6,7-hexahydro-s-indacen-4-yl)amino)-4H-1,2,4-triazol-3-yl)sulfonyl)benzonitrile]"
5,≤ 5,"CC(C)(O)C1CCCN(S(=O)(=O)c2nnc(Nc3c4c(cc5c3CCC5)CCC4)[nH]2)C1 (stereo not shown) [Example 315, 2-(1-((5-((1,2,3,5,6,7-hexahydro-s-indacen-4-yl)amino)-4H-1,2,4-triazol-3-yl)sulfonyl)piperidin-3-yl)propan-2-ol]"
6,≤ 1,"COc1ccccc1S(=O)(=O)c1nnc(Nc2c3c(cc4c2CCC4)CCC3)[nH]1 [Example 173, N-(1,2,3,5,6,7-hexahydro-s-indacen-4-yl)-5-((2-methoxyphenyl)sulfonyl)-4H-1,2,4-triazol-3-amine]"
7,≤ 5,"CN1CCN(CCCS(=O)(=O)c2nnc(Nc3c4c(cc5c3CCC5)CCC4)[nH]2)CC1 [Example 51, N-(1,2,3,5,6,7-hexahydro-s-indacen-4-yl)-5-((3-(4-methylpiperazin-1-yl)propyl)sulfonyl)-4H-1,2,4-triazol-3-amine]"
8,≤ 5,"Cc1cc2c(c(Nc3nnc(S(C)(=O)=O)[nH]3)c1-c1ccnc(OC3CCOCC3)c1)CCC2 [Example 364, N-(6-methyl-5-(2-((tetrahydro-2H-pyran-4-yl)oxy)pyridin-4-yl)-2,3-dihydro-1H-inden-4-yl)-5-(methylsulfonyl)-4H-1,2,4-triazol-3-amine]"
9,≤ 5,"CN1CCN(C2CCN(S(=O)(=O)c3nnc(Nc4c5c(cc6c4CCC6)CCC5)[nH]3)CC2)CC1 [Example 135, N-(1,2,3,5,6,7-hexahydro-s-indacen-4-yl)-5-((4-(4-methylpiperazin-1-yl)piperidin-1-yl)sulfonyl)-4H-1,2,4-triazol-3-amine]"
10,≤ 5,"Cc1cc2c(c(Nc3nnc(S(C)(=O)=O)[nH]3)c1-c1ccnc(OCC3CCCN(C)C3)c1)CCC2 (stereo not shown) [Example 362, N-(6-methyl-5-(2-((1-methylpiperidin-3-yl)methoxy)pyridin-4-yl)-2,3-dihydro-1H-inden-4-yl)-5-(methylsulfonyl)-4H-1,2,4-triazol-3-amine]"
